Data reported in patent US6737383B1, “Herbicidal oxadiazolidines” (priority 1999, dated 2004).

What was measured:
[1] = test system: bedstraw; experiment: Test B pre/postemergence bedstraw; type: in vivo, Galium aparine
Outline: (§1)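 Test chemicals in a non-phytotoxic solvent mixture with surfactant were sprayed preemergence onto planted seeds and postemergence onto plants 2 to 18 cm tall (1- to 4-leaf stage). After twelve to sixteen days in a greenhouse, injury was visually rated against untreated controls from 0 (no effect) to 10 (complete control).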

[2] = test system: blackgrass; experiment: Test B pre/postemergence blackgrass; type: in vivo, Alopecurus myosuroides
Outline: as §1

[3] = test system: surinam grass; experiment: Test B pre/postemergence surinam grass; type: in vivo, Brachiaria decumbens
Outline: as §1

[4] = test system: corn; experiment: Test B pre/postemergence corn; type: in vivo, Zea mays
Outline: as §1

[5] = test system: crabgrass; experiment: Test B pre/postemergence crabgrass; type: in vivo, Digitaria sanguinalis
Outline: as §1

[6] = test system: pigweed; experiment: Test B pre/postemergence pigweed; type: in vivo, Amaranthus retroflexus
Outline: as §1

[7] = test system: rape; experiment: Test B pre/postemergence rape; type: in vivo, Brassica napus
Outline: as §1

[8] = test system: soybean; experiment: Test B pre/postemergence soybean; type: in vivo, Glycine max
Outline: as §1

[9] = test system: sugar beet; experiment: Test B pre/postemergence sugar beet; type: in vivo, Beta vulgaris
Outline: as §1

[10] = test system: velvetleaf; experiment: Test B pre/postemergence velvetleaf; type: in vivo, Abutilon theophrasti
Outline: as §1

[11] = test system: wheat; experiment: Test B pre/postemergence wheat; type: in vivo, Triticum aestivum
Outline: as §1

[12] = test system: wild oat; experiment: Test B pre/postemergence wild oat; type: in vivo, Avena fatua
Outline: as §1

[13] = test system: purple nutsedge; experiment: Test B pre/postemergence purple nutsedge; type: in vivo, Cyperus rotundus
Outline: as §1

[14] = test system: rice; experiment: Test B flood test rice; type: in vivo, Oryza sativa
Outline: (§2)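 Each value is a visual injury score relative to controls, with 10 meaning complete control and 0 no effect. Evaluation took place twelve to sixteen days after the 2-leaf-stage plants were treated and kept in the greenhouse.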

[15] = test system: smallflower flatsedge; experiment: Test B flood test smallflower flatsedge; type: in vivo, Cyperus difformis
Outline: as §2

[16] = test system: duck salad; experiment: Test B flood test duck salad; type: in vivo, Heteranthera limosa
Outline: as §2

[17] = Preemergence, Rate 62 g/ha, scale 0 to 10 (0 no effect, 10 complete control)
[18] = Preemergence, Rate 125 g/ha, 0 is no effect, 10 is complete control
[19] = Preemergence, Rate 250 g/ha, scale 0 to 10, 0 is no effect, 10 is complete control
[20] = Preemergence, Rate 500 g/ha, scale 0 to 10 (0 no effect, 10 complete control)
[21] = Postemergence, Rate 125 g/ha, scale of 0 to 10 where 0 is no effect and 10 is complete control
[22] = Rate 62 g/ha, Postemergence, scale of 0 to 10 where 0 is no effect and 10 is complete control
[23] = Rate 250 g/ha, Postemergence, scale 0 to 10, 0 is no effect, 10 is complete control
[24] = Rate 500 g/ha, Postemergence, scale 0 to 10
[25] = Postemergence (flood test species), Rate 125 g/ha, scale of 0 to 10 where 0 is no effect and 10 is complete control
[26] = Rate 62 g/ha, Postemergence section, flood test species, scale of 0 to 10 where 0 is no effect and 10 is complete control
[27] = Rate 250 g/ha, Postemergence (flood test), scale 0 to 10, 0 is no effect, 10 is complete control
[28] = Rate 250 g/ha, headed Pre-emergence (flood test species), scale 0 to 10 (0 no effect, 10 complete control)
[29] = Rate 500 g/ha, headed Pre-emergence (flood test species), scale 0 to 10 (0 no effect, 10 complete control)
[30] = Rate 500 g/ha, listed under Postemergence (flood test species), scale 0 to 10
[31] = Rate 1000 g/ha, Pre-emergence (as headed), scale 0 to 10
[32] = Rate 2000 g/ha, Pre-emergence (as headed), scale 0 to 10

Cc1cnn(C)c1-n1c(=O)on(C(=O)N(c2ccc(F)cc2)C(C)C)c1=O [Compound 125]
Bedstraw plant response rating [1, 17]: 0 | Bedstraw plant response rating (0 to 10 scale) [1, 18]: 0 | Bedstraw plant response rating [1, 19]: 0 | Bedstraw plant response rating [1, 20]: 0 | Bedstraw plant response rating ([1]; Rate 500 g/ha, Postemergence, scale 0 to 10, 0 no effect, 10 complete control): 0 | Blackgrass plant response rating [2, 21]: 0 | Blackgrass plant response rating [2, 17]: 0 | Blackgrass plant response rating (0 to 10 scale) [2, 18]: 0 | Blackgrass plant response rating [2, 20]: 0 | Blackgrass plant response rating [2, 22]: 0 | Plant response rating, Blackgrass [2, 23]: 0 | Blackgrass plant response rating [2, 24]: 0 | B. signalgrass plant response rating ([3]; Postemergence, Rate 62 g/ha, scale 0 to 10, 0 is no effect, 10 is complete control): 0 | B. signalgrass plant response rating [3, 21]: 0 | B. signalgrass plant response rating [3, 17]: 0 | B. signalgrass plant response rating (0 to 10 scale) [3, 18]: 0 | B. signalgrass plant response rating [3, 19]: 0 | B. signalgrass plant response rating [3, 20]: 0 | Plant response rating, B. signalgrass [3, 23]: 0 | B. signalgrass plant response rating ([3]; Rate 500 g/ha, Postemergence, scale of 0 to 10 where 0 is no effect and 10 is complete control): 0 | Corn plant response rating [4, 21]: 0 | Corn plant response rating [4, 17]: 0 | Corn plant response rating (0 to 10 scale) [4, 18]: 0 | Corn plant response rating [4, 19]: 0 | Corn plant response rating [4, 20]: 0 | Corn plant response rating [4, 22]: 0 | Plant response rating, Corn [4, 23]: 0 | Corn plant response rating [4, 24]: 0 | Crabgrass plant response rating [5, 21]: 0 | Crabgrass plant response rating [5, 17]: 0 | Crabgrass plant response rating (0 to 10 scale) [5, 18]: 0 | Crabgrass plant response rating [5, 19]: 0 | Crabgrass plant response rating [5, 20]: 0 | Crabgrass plant response rating [5, 22]: 0 | Plant response rating, Crabgrass [5, 23]: 0 | Crabgrass plant response rating [5, 24]: 0 | Redroot pigweed plant response rating [6, 21]: 0 | Redroot pigweed plant response rating [6, 17]: 0 | Redroot pigweed plant response rating (0 to 10 scale) [6, 18]: 0 | Redroot pigweed plant response rating [6, 19]: 0 | Redroot pigweed plant response rating [6, 20]: 0 | Redroot pigweed plant response rating [6, 22]: 0 | Plant response rating, Redroot pigweed [6, 23]: 0 | Redroot pigweed plant response rating [6, 24]: 0 | Rape plant response rating [7, 21]: 0 | Rape plant response rating [7, 17]: 0 | Rape plant response rating (0 to 10 scale) [7, 18]: 0 | Rape plant response rating [7, 19]: 0 | Rape plant response rating [7, 20]: 0 | Rape plant response rating [7, 22]: 0 | Plant response rating, Rape [7, 23]: 0 | Rape plant response rating [7, 24]: 0 | Soybean plant response rating [8, 21]: 4 | Soybean plant response rating [8, 17]: 0 | Soybean plant response rating (0 to 10 scale) [8, 18]: 0 | Soybean plant response rating [8, 19]: 0 | Soybean plant response rating [8, 20]: 0 | Soybean plant response rating [8, 22]: 0 | Plant response rating, Soybean [8, 23]: 4 | Soybean plant response rating [8, 24]: 4 | Sugarbeets plant response rating [9, 21]: 0 | Sugarbeets plant response rating [9, 17]: 0 | Sugarbeets plant response rating (0 to 10 scale) [9, 18]: 0 | Sugarbeets plant response rating [9, 19]: 0 | Sugarbeets plant response rating [9, 20]: 0 | Sugarbeets plant response rating [9, 22]: 0 | Plant response rating, Sugarbeets [9, 23]: 0 | Sugarbeets plant response rating [9, 24]: 0 | Velvetleaf plant response rating [10, 21]: 0 | Velvetleaf plant response rating [10, 17]: 0 | Velvetleaf plant response rating (0 to 10 scale) [10, 18]: 0 | Velvetleaf plant response rating [10, 19]: 0 | Velvetleaf plant response rating [10, 20]: 0 | Velvetleaf plant response rating [10, 22]: 0 | Plant response rating, Velvetleaf [10, 23]: 0 | Velvetleaf plant response rating [10, 24]: 0 | Wheat plant response rating [11, 21]: 0 | Wheat plant response rating [11, 17]: 0 | Wheat plant response rating (0 to 10 scale) [11, 18]: 0 | Wheat plant response rating [11, 19]: 0 | Wheat plant response rating [11, 20]: 0 | Wheat plant response rating [11, 22]: 0 | Plant response rating, Wheat [11, 23]: 0 | Wheat plant response rating [11, 24]: 0 | Wild oats plant response rating [12, 21]: 0 | Wild oats plant response rating [12, 17]: 0 | Wild oats plant response rating (0 to 10 scale) [12, 18]: 0 | Wild oats plant response rating [12, 19]: 0 | Wild oats plant response rating [12, 20]: 0 | Wild oats plant response rating [12, 22]: 0 | Plant response rating, Wild oats [12, 23]: 0 | Wild oats plant response rating [12, 24]: 0 | Nutsedge plant response rating [13, 21]: 0 | Nutsedge plant response rating [13, 17]: 0 | Nutsedge plant response rating (0 to 10 scale) [13, 18]: 0 | Nutsedge plant response rating [13, 19]: 0 | Nutsedge plant response rating [13, 20]: 0 | Nutsedge plant response rating [13, 22]: 0 | Plant response rating, Nutsedge [13, 23]: 0 | Nutsedge plant response rating [13, 24]: 0 | Rice plant response rating [14, 25]: 0 | Rice plant response rating [14, 26]: 0 | Plant response rating, Rice [14, 27]: 0 | Rice plant response rating [14, 28]: 0 | Plant response rating, Rice [14, 29]: 0 | Rice plant response rating [14, 30]: 0 | Rice plant response rating [14, 31]: 0 | Rice plant response rating [14, 32]: 0 | S. Flatsedge plant response rating [15, 25]: 0 | S. Flatsedge plant response rating ([15]; Pre-emergence, Rate 1000 g/ha, scale 0 to 10 (0 no effect, 10 complete control)): 0 | S. Flatsedge plant response rating [15, 26]: 0 | Plant response rating, S. Flatsedge [15, 27]: 0 | S. Flatsedge plant response rating [15, 28]: 0 | Plant response rating, S. Flatsedge [15, 29]: 0 | S. Flatsedge plant response rating [15, 30]: 0 | S. Flatsedge plant response rating [15, 32]: 0 | Ducksalad plant response rating [16, 25]: 0 | Ducksalad plant response rating [16, 26]: 0 | Plant response rating, Ducksalad [16, 27]: 0 | Ducksalad plant response rating [16, 28]: 0 | Plant response rating, Ducksalad [16, 29]: 0 | Ducksalad plant response rating [16, 30]: 0 | Ducksalad plant response rating [16, 31]: 0 | Ducksalad plant response rating [16, 32]: 0
